Test results as given in patent US11306084B2, “Integrin antagonists” (Saint Louis University, priority 2016, dated 2022).
Where a name gives a salt, the structure may show the parent alone.

Experiments:
Format in all cases: binding
[1] = target: T1, Recombinant human integrin ανβ8 (Homo sapiens, UniProt P06756+P26012); assay: Solid Phase Receptor Assay (SPRA) for ανβ8 function; details: plate-bound human LAP; read-out: αvβ8 SPRA IC50
T1 construct: purchased R&D Systems 4135-AV
Protocol: F. Solid Phase Receptor Assay (SPRA) for ανβ8 Function
Wells were washed 3 times with 150 μL TBS+ and then 150 μL of blocking buffer (TBS+ with 1% bovine serum albumin, Sigma A7906) was added. The plate was incubated for 1 hr at 37° C. and then washed 3× with TBS+. […] Compounds were diluted to 20 μM and 1 μL was added to each well of the plate according to a standard template with each sample repeated in triplicate. After incubation for two hours at room temperature, the plate was washed 3× with 150 μL of TBS+. To each well, 50 μL of biotinylated anti-αν antibody (R&D Systems, BAF1219) at 1 μg/mL in TBS+/0.1% BSA were added and the plate was covered and incubated for 1 hr at room temperature. After washing the plate 3× with 150 μL. of TBS+ buffer, 50 μL of streptavidin-conjugated horseradish peroxidase (R&D Systems, DY998) diluted in TBS+ blocking buffer were added to the wells and the plate incubated for 20 min at room temperature. The plate was washed 3× with TBS+ followed by 50 μL of TMB substrate (Sigma T4444) added to each well in the dark and the plate incubated for 10 min at room temperature. 25 μL of 1.0 M phosphoric acid was added as a stop solution and the plates were read at 450 nm using a Spectramax plate reader.

[2] = target: T2, Recombinant human integrin ανβ6 (Homo sapiens, UniProt P06756+P18564); assay: Solid Phase Receptor Assay (SPRA) for ανβ6 function; details: plate-bound human LAP; read-out: αvβ6 SPRA IC50
T2 construct: purchased R&D Systems 3817-AV
T2 sequence (P06756 31-992 limits assumed): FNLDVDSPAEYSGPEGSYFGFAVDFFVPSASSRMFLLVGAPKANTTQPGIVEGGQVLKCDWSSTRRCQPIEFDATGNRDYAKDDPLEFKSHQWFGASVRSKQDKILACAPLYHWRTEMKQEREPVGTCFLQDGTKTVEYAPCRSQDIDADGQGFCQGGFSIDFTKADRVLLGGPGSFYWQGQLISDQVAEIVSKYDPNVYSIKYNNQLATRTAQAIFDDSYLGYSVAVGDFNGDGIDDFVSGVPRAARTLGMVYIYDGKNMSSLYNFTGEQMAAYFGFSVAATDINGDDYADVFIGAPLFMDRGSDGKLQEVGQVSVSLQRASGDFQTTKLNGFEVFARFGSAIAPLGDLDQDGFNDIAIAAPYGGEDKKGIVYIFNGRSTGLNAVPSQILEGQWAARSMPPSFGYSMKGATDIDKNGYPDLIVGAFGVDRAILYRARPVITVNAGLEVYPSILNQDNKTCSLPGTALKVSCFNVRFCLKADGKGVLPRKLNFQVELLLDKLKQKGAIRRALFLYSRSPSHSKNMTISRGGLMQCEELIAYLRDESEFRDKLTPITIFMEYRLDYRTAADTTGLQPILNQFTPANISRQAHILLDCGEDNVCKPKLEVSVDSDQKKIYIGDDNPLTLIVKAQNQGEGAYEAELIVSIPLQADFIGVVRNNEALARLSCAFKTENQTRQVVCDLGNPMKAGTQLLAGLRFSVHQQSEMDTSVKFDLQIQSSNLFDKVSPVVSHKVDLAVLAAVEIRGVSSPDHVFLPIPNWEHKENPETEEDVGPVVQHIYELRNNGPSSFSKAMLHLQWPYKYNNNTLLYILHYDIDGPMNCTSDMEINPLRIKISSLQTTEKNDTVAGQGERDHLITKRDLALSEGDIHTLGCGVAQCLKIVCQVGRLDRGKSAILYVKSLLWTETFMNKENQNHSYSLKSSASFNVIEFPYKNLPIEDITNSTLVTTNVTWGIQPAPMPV
T2 sequence (P18564 22-707 limits assumed): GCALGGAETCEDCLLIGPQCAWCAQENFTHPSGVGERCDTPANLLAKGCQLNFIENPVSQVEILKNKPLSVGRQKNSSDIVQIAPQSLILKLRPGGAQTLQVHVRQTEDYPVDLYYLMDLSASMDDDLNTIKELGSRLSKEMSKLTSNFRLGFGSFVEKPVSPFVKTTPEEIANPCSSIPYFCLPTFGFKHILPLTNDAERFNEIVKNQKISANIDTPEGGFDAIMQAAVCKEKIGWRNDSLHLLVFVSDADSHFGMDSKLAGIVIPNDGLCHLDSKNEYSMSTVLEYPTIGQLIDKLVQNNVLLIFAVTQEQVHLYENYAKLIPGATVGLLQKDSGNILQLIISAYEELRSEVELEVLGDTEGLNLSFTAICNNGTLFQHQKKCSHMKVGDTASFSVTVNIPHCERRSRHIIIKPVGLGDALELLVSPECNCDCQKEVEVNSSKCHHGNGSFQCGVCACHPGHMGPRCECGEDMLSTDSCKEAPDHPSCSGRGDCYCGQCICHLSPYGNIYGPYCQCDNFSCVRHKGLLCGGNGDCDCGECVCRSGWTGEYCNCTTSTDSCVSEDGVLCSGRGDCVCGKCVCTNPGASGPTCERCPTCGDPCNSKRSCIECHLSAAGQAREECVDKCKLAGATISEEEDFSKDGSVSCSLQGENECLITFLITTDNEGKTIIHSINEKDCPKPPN
Protocol: E. Solid Phase Receptor Assay (SPRA) for ανβ6 Function
Wells were washed 3 times with 150 μL TBS+, and then 150 μL of blocking buffer (TBS+ with 1% bovine serum albumin, Sigma A7906) was added. The plate was incubated for 1 hr at 37° C., and then washed 3× with TBS+ buffer. […] Compounds were diluted to 20 μM and then 1 μL was added to each well of the plate according to a standard template with each sample repeated in triplicate. After incubation for two hours at room temperature, the plate was washed 3× with 150 μL of TBS+ buffer. To each well, 50 μL of biotinylated anti-αν antibody (R&D Systems, BAF1219) at 0.5 μg/mL in TBS+/0.1% BSA were added and the plate was covered and incubated for 1 hr at room temperature. After washing the plate 3× with 150 μL of TBS+ buffer, 50 μL of streptavidin-conjugated horseradish peroxidase (R&D Systems, DY998) diluted in TBS+ blocking buffer were added to the wells and the plate incubated for 20 min at room temperature. The plate was washed 3× with TBS+ buffer followed by 50 μL of TMB substrate (Sigma T4444) added to each well in the dark and the plate incubated for 10 min at room temperature. 25 μL of 1.0 M phosphoric acid was added as a stop solution and the plates were read at 450 nm using a Spectramax plate reader.

[3] = target: T3, Recombinant human integrin α5β1 (Homo sapiens, UniProt P05556+P08648); assay: Solid Phase Receptor Assay (SPRA) for α5β1 function; details: plate-bound human fibronectin
T3 construct: purchased R&D Systems 3230-A5
T3 sequence (P08648 42-995 limits assumed): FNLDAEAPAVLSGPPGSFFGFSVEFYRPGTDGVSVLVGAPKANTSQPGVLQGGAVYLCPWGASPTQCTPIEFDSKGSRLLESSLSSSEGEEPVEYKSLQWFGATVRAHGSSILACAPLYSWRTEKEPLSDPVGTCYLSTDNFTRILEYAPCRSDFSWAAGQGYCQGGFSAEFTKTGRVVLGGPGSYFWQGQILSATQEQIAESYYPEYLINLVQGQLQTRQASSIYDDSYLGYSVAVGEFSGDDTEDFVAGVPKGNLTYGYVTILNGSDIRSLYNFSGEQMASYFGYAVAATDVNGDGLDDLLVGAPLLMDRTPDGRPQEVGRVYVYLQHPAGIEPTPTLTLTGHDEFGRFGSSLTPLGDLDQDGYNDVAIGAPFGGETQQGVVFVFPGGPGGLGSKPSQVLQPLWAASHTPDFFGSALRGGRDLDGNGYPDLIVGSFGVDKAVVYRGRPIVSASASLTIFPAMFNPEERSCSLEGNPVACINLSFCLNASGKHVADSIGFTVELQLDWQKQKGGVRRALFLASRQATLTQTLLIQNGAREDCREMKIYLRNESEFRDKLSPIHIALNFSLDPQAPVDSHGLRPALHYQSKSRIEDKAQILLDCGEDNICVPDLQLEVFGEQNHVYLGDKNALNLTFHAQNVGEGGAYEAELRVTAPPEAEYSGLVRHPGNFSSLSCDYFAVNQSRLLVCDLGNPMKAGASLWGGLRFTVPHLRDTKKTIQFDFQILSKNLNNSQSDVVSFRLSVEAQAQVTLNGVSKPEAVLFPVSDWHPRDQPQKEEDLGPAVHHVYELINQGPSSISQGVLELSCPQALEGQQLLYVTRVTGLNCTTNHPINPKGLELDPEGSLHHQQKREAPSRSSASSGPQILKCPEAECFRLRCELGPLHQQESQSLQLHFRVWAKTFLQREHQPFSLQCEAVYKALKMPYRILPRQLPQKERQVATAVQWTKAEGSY
T3 sequence (P05556 21-728 limits assumed): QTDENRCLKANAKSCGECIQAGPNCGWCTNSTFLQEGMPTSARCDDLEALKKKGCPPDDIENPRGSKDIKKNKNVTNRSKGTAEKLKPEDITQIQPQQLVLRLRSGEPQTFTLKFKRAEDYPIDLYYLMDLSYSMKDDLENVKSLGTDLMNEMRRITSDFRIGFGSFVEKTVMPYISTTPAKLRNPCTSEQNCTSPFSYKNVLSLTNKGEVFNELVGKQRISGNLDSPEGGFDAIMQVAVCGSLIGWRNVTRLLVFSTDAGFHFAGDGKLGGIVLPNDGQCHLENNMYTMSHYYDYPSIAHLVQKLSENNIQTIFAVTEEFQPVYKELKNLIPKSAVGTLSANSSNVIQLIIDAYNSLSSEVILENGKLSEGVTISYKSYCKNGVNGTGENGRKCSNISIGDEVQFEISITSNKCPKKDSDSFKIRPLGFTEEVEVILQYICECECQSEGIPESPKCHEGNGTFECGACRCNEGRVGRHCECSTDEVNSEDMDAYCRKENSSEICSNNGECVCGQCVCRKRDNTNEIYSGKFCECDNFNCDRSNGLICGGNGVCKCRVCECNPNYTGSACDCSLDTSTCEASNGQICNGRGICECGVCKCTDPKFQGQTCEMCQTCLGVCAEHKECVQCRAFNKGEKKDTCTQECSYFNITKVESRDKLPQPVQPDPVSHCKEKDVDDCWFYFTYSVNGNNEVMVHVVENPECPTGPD
Protocol: A. Solid Phase Receptor Assay (SPRA) for α5β1 Function
Wells were washed 3 times with 150 μL TBS+ and then 150 μL of blocking buffer (TBS+ with 1% bovine serum albumin, Sigma A7906) was added. The plate was incubated for 1 hr at 37° C. and then washed 3× with TBS+ buffer. […] Compounds were diluted to 20 μM and then 1 μL was added to each well of the plate according to a standard template with each sample repeated in triplicate. After incubation for two hours at room temperature, the plate was washed 3× with 150 μL of TBS+ buffer. To each well, 50 μL of biotinylated anti-α5 antibody (R&D Systems, BAF1864) at 0.5 μg/mL in TBS+/0.1% BSA were added and the plate covered and incubated for 1 hr at room temperature. After washing the plate 3× with 150 μL of TBS+ buffer, 50 μL of streptavidin-conjugated horseradish peroxidase (R&D Systems, DY998) diluted in TBS+ blocking buffer were added to the wells and the plate incubated for 20 min at room temperature. The plate was washed 3× with TBS+ buffer followed by 50 μL of room temperature TMB substrate (Sigma, T4444) added to each well in the dark and the plate incubated for 25 min at room temperature. 25 μL of 1.0 M phosphoric acid was added as a stop solution and the plates were read at 450 nm using a Spectramax plate reader.

[4] = target: T4, Recombinant human integrin ανβ1 (Homo sapiens, UniProt P05556+P06756); assay: Solid Phase Receptor Assay (SPRA) for ανβ1 function; details: plate-bound human fibronectin; read-out: αvβ1 SPRA IC50
T4 construct: purchased R&D Systems 6579-AV
T4 sequence (P06756 31-992 limits assumed): as the sequence (P06756 31-992 limits assumed) above
T4 sequence (P05556 21-728 limits assumed): as the sequence (P05556 21-728 limits assumed) above
Protocol: B. Solid Phase Receptor Assay (SPRA) for ανβ1 Function
Wells were washed 3 times with 150 μL TBS+ and then 150 μL of blocking buffer (TBS+ with 1% bovine serum albumin, Sigma A7906) was added. The plate was incubated for 1 hr at 37° C. and then washed 3× with TBS+ buffer. […] Compounds were diluted to 20 μM and 1 μL was added to each well of the plate according to a standard template with each sample repeated in triplicate. After incubation for two hours at room temperature, the plate was washed 3 with 150 μL of TBS+ buffer. To each well, 50 μL of biotinylated anti-αν antibody (R&D Systems, BAF1219) at 1 μg/mL in TBS+/0.1% BSA were added and the plate covered and incubated for 1 hr at room temperature. After washing the plate 3× with 150 μL of TBS+ buffer, 50 μL of streptavidin-conjugated horseradish peroxidase (R&D Systems, DY998) diluted in TBS+ blocking buffer were added to the wells and the plate incubated for 20 min at room temperature. The plate was washed 3× with TBS+ buffer followed by 50 μL of TMB substrate (Sigma, T4444) added to each well in the dark and the plate incubated for 25 min at room temperature. 25 μL of 1.0 M phosphoric acid was added as a stop solution and the plates were read at 450 nm using a Spectramax plate reader.

T1 sequence (P06756 31-992 limits assumed): as the sequence (P06756 31-992 limits assumed) above
T1 sequence (P26012 43-684 limits assumed): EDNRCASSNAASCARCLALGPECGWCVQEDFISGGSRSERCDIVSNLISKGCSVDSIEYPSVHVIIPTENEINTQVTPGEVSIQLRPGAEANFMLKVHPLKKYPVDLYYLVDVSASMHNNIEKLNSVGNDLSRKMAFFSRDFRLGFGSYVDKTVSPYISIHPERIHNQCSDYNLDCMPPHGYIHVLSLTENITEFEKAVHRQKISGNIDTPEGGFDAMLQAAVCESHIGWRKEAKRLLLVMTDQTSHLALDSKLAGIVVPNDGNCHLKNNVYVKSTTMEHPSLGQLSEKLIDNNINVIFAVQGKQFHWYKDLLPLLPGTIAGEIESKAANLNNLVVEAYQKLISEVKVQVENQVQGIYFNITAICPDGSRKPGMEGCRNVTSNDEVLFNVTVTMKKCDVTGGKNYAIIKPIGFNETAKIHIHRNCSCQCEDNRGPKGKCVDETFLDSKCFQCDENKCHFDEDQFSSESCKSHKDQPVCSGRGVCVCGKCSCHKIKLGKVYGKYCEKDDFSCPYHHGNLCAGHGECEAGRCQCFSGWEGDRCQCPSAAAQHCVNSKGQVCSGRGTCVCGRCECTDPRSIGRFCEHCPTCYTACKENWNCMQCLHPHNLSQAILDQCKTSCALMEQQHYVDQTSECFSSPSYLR

Row | SMILES | IC50 [1] | IC50 [2] | IC50 [3] | IC50 [4]
1 | Cn1nc(CC(CC(=O)O)c2cc(Br)cc(OC(F)(F)F)c2)cc1OCCc1ccc2c(n1)NCCC2 (centres unmarked) [Example 11, 3-(3-bromo-5-(trifluoromethoxy)phenyl)-4-(1-methyl-5-(2-(5,6,7,8-tetrahydro-1,8-naphthyridin-2-yl)ethoxy)-1H-pyrazol-3-yl)butanoic Acid] | 42 nM | 60 nM | 150 nM | 11 nM
2 | COc1ccc(C(F)(F)F)cc1C(CC(=O)O)Cc1cc(OCCc2ccc3c(n2)NCCC3)n(C)n1 (centres unmarked) [Example 13, 3-(2-methoxy-5-(trifluoromethyl)phenyl)-4-(1-methyl-5-(2-(5,6,7,8-tetrahydro-1,8-naphthyridin-2-yl)ethoxy)-1H-pyrazol-3-yl)butanoic Acid Trifluoroacetate] | 26 nM | 51 nM | 59 nM | 5.8 nM
3 | COc1ccc(Br)cc1C(CC(=O)O)Cc1cc(OCCc2ccc3c(n2)NCCC3)n(C)n1 (centres unmarked) [Example 14, 3-(5-bromo-2-methoxyphenyl)-4-(1-methyl-5-(2-(5,6,7,8-tetrahydro-1,8-naphthyridin-2-yl)ethoxy)-1H-pyrazol-3-yl)butanoic acid trifluoroacetate] | 12 nM | 22 nM | 44 nM | 5 nM
4 | COc1ccc([C@H](CC(=O)O)Cc2cc(OCCc3ccc4c(n3)NCCC4)n(C)n2)cc1F [Example 15, (3S)-3-(3-fluoro-4-methoxyphenyl)-4-(1-methyl-5-(2-(5,6,7,8-tetrahydro-1,8-naphthyridin-2-yl)ethoxy)-1H-pyrazol-3-yl)butanoic Acid] | 90 nM | 49 nM | 85 nM | 3.8 nM
5 | Cn1nc(CC(CC(=O)O)c2cc(Br)cc(C(C)(C)C)c2)cc1OCCc1ccc2c(n1)NCCC2 (centres unmarked) [Example 16, 3-(3-bromo-5-tert-butyl-phenyl)-4-(1-methyl-5-(2-(5,6,7,8-tetrahydro-1,8-naphthyridin-2-yl)ethoxy)-1H-pyrazol-3-yl)butanoic Acid] | 7.8 nM | 80 nM | 30 nM | 3 nM
6 | Cn1nc(CC(CC(=O)O)c2cc(C#N)cc(C(C)(C)C)c2)cc1OCCc1ccc2c(n1)NCCC2 (centres unmarked) [Example 17] | 6.9 nM | 28 nM | 11 nM | 4.4 nM
7 | Cn1nc(CC(CC(=O)O)c2cc(C(C)(C)C)cc(C(C)(C)C)c2)cc1OCCc1ccc2c(n1)NCCC2 (centres unmarked) [Example 18, 3-(3,5-di-tert-butylphenyl)-4-[1-methyl-5-[2-(5,6,7,8-tetrahydro-1,8-naphthyridin-2-yl)ethoxyl]pyrazol-3-yl]butanoic Acid] | 85 nM | 620 nM | 6.4 nM | 1.4 nM
8 | Cn1nc(CC(CC(=O)O)c2cc(Br)cc(C3(C(F)F)CC3)c2)cc1OCCc1ccc2c(n1)NCCC2 (centres unmarked) [Example 19, 3-(3-bromo-5-(1-(difluoromethyl)cyclopropyl)phenyl)-4-(1-methyl-5-(2-(5,6,7,8-tetrahydro-1,8-naphthyridin-2-yl)ethoxy)-1H-pyrazol-3-yl)butanoic Acid] | 8.5 nM | 45 nM | 15 nM | 6.3 nM
9 | Cn1nc(CC(CC(=O)O)c2cc(C#N)cc(C3(C(F)F)CC3)c2)cc1OCCc1ccc2c(n1)NCCC2 (centres unmarked) [Example 20, 3-(3-cyano-5-(1-(difluoromethyl)cyclopropyl)phenyl)-4-(1-methyl-5-(2-(5,6,7,8-tetrahydro-1,8-naphthyridin-2-yl)ethoxy)-1H-pyrazol-3-yl)butanoic Acid] | 14 nM | 17 nM | 5.5 nM | 3.9 nM
10 | Cn1nc(CC(CC(=O)O)c2cc(F)cc(C3(C(F)F)CC3)c2)cc1OCCc1ccc2c(n1)NCCC2 (centres unmarked) [Example 21, 3-(3-(1-(difluoromethyl)cyclopropyl)-5-fluorophenyl)-4-(1-methyl-5-(2-(5,6,7,8-tetrahydro-1,8-naphthyridin-2-yl)ethoxy)-1H-pyrazol-3-yl)butanoic Acid] | 53 nM | 47 nM | 12 nM | 3.7 nM
11 | Cn1nc(CC(CC(=O)O)c2cc(Cl)cc(C3(C(F)F)CC3)c2)cc1OCCc1ccc2c(n1)NCCC2 (centres unmarked) [Example 22, 3-(3-chloro-5-(1-(difluoromethyl)cyclopropyl)phenyl)-4-(1-methyl-5-(2-(5,6,7,8-tetrahydro-1,8-naphthyridin-2-yl)ethoxy)-1H-pyrazol-3-yl)butanoic Acid] | 17 nM | 26 nM | 8.8 nM | 2.2 nM
12 | Cn1nc(CC(CC(=O)O)c2cc(C(F)(F)F)cc(C3(C(F)F)CC3)c2)cc1OCCc1ccc2c(n1)NCCC2 (centres unmarked) [Example 23, 3-(3-(1-(difluoromethyl)cyclopropyl)-5-(trifluoromethyl)phenyl)-4-(1-methyl-5-(2-(5,6,7,8-tetrahydro-1,8-naphthyridin-2-yl)ethoxy)-1H-pyrazol-3-yl)butanoic Acid] | 7.9 nM | 38 nM | 8.8 nM | 3.8 nM
13 | Cn1nc(CC(CC(=O)O)c2cc(F)cc(C(C)(C)C(F)(F)F)c2)cc1OCCc1ccc2c(n1)NCCC2 (centres unmarked) [Example 24, 3-(3-fluoro-5-(1,1,1-trifluoro-2-methylpropan-2-yl)phenyl)-4-(1-methyl-5-(2-(5,6,7,8-tetrahydro-1,8-naphthyridin-2-yl)ethoxy)-1H-pyrazol-3-yl)butanoic Acid] | 89 nM | 110 nM | 15 nM | 4.4 nM
14 | Cn1nc(CC(CC(=O)O)c2cc(C(F)(F)F)cc(C(C)(C)C(F)(F)F)c2)cc1OCCc1ccc2c(n1)NCCC2 (centres unmarked) [Example 25, 4-[1-methyl-5-[2-(5,6,7,8-tetrahydro-1,8-naphthyridin-2-yl)ethoxy]pyrazol-3-yl]-3-[3-(2,2,2-trifluoro-1,1-dimethylethyl)-5-(trifluoromethyl)phenyl]butanoic Acid] | 12 nM | 25 nM | 12 nM | 3.1 nM
